Laboratory results reported in patent US20030064380A1, “Anergy-regulated molecules” (The Center For Blood Research, Inc., priority 2001, published 2003).

Tested on: D5 Th1 T cell line
Assay: nucleic acid expression profile of D5 Th1 T cell line stimulated with 500 nM ionomycin, 1 μM CsA plus ionomycin or 20 nM PMA plus ionomycin; 11K chip, first replicate
Format: cell-based, murine
Design: expression level of Msa.15983.0_f_at / expression level of Msa.1669.0_f_at / expression level of Msa.18713.0_g_at / expression level of D86609_s_at / expression level of TC19211_at / expression level of TC21156_at / expression level of TC24045_at / expression level of TC30384_g_at / expression level of TC3225_at / expression level of TC38978_at / expression level of TC39080_at / expression level of TC17495_at: unit not given here
Procedure: D5 or primary T cells from NFAT1−/− or wild type DO11.10 transgenic mice were stimulated for 2, 6 or 16 hours with 500 nM ionomycin, 20 nM PMA plus 500 nM ionomycin, or 1 μM CsA plus 500 nM ionomycin. Total RNA was isolated with an RNeasy kit (QIAGEN). Ten μg of total RNA was quantitatively amplified and biotin-labeled as described (Byrne et al., (2000) “Preparation of mRNA for Expression Monitoring” Current Protocols in Molecular Biology (John Wiley & Sons, Inc.) pp. 22.22.21-22.22.13). Hybridization to GeneChips® (Affymetrix) displaying probes for 11,000 mouse genes/ESTs was performed at 40° C. overnight in a mix that included 10 μg fragmented RNA, 6× SSPE, 0.005% Triton X-100 and 100 μg/ml herring sperm DNA in a total volume of 200 μl. Chips were washed, stained with SA-PE and read using an Affymetrix GeneChip® scanner and accompanying gene expression software. Labeled bacterial RNAs of known concentration were spiked into each chip hybridization mix to generate an internal standard curve, allowing normalization between chips and conversion of raw hybridization intensity values to mRNA frequency (mRNA molecules per million).
Nucleic acid expression profiles were obtained from a T cell line at multiple time points and in various T cell states. The D5 Th1 T cell line was stimulated in three different ways: 1) ionomycin alone (e.g., causing the regulatory factor NFAT to move from the cytoplasm to the nucleus); 2) ionomycin+PMA (e.g., causing both NFAT and the transcription factor AP-1 to enter the nucleus); 3) ionomycin +cyclosporin A (CsA) (e.g., preventing NFAT from entering the nucleus in response to ionomycin). […] Cells were stimulated for 0, 2, 6, and 16 hours. RNA was isolated and analyzed on a nucleic acid chip with probes that monitor the expression of 11,000 nucleic acids located at unique addresses. The experiment was done twice (i.e., with two replicates, Rep. 1 and Rep. 2). Nucleic acid expression at the 2, 6 and 16 hour timepoints was compared to nucleic acid expression at 0 hours.
The nucleic acid expression data was stored in a computer database. A database query was used to identify all nucleic acids that were deemed “increasing” or “decreasing” in response to ionomycin (relative to the 0 hour sample) in at least one timepoint in Rep. 1, and the nucleic acids were also deemed “increasing” or “decreasing” in response to ionomycin in Rep. 2.
To test the hypothesis that NFAT in the absence of AP-1 and NFKB induced a genetic program of anergy, genes induced in D5 T cells by ionomycin stimulation alone were evaluated (FIGS. 1, 2 and 6). Samples from D5 cells stimulated with ionomycin plus CsA, which blocks anergy induction, and ionomycin plus PMA, which pharmacologically mimic complete stimulation through the TCR and CD28 were included. RNA was prepared from unstimulated D5 T cells and from cells stimulated for 2, 6 or 16 h under these three conditions, and gene transcription profiles were evaluated using Affymetrix oligonucleotide arrays (FIG. 6A).

`C[C@H](CCC(=O)O)C[C@H](C)C[C@H](C)C(=O)/C=C(\O)[C@H](C)C[C@H](C)C/C=C/[C@@H](C)[C@@H](O)[C@@H](C)[C@@H](O)C[C@@H]1CC[C@@](C)([C@H]2CC[C@@](C)([C@@H](C)O)O2)O1` [Ionomycin, ionomycin] was tested, and the “expression level of D86609_s_at” value (2 h) was 48, the “expression level of ET63436_at” value (2 h) was 149 and the “expression level of MIP1-B_at” value (2 h) was 265.5. The “expression level of Msa.11439.0_s_at” value (2 h) was 37, the “expression level of Msa.15983.0_f_at” value (2 h) was 40 and the “expression level of Msa.1669.0_f_at” value (2 h) was 33. For the same compound, the “expression level of Msa.18713.0_g_at” value (2 h) was 63, the “expression level of Msa.21745.0_s_at” value (2 h) was 9 and the “expression level of TC3225_at” value (2 h) was 41. For the same compound, the “expression level of TC14671_g_at” value (2 h) was 15, the “expression level of TC16364_at” value (2 h) was 38 and the “expression level of TC16828_at” value (2 h) was 13. The “expression level of TC17132_at” value (2 h) was 41, the “expression level of TC17495_at” value (2 h) was 10 and the “expression level of TC17558_at” value (2 h) was 28. For the same compound, the “expression level of TC18221_at” value (2 h) was 6, the “expression level of TC19211_at” value (2 h) was 21 and the “expression level of TC21156_at” value (2 h) was 34. For the same compound, the “expression level of TC23346_s_at” value (2 h) was 8, the “expression level of TC23450_s_at” value (2 h) was 20 and the “expression level of TC24045_at” value (2 h) was 26. The “expression level of TC24067_at” value (2 h) was 8, the “expression level of TC25965_at” value (2 h) was 19 and the “expression level of TC27326_g_at” value (2 h) was 40. For the same compound, the “expression level of TC29889_at” value (2 h) was 17, the “expression level of TC30384_g_at” value (2 h) was 77 and the “expression level of TC30935_at” value (2 h) was 30. The “expression level of TC30992_s_at” value (2 h) was 14, the “expression level of TC31681_at” value (2 h) was 52 and the “expression level of TC33206_at” value (2 h) was 20. The “expression level of TC33833_at” value (2 h) was 19, the “expression level of TC34186_at” value (2 h) was 19 and the “expression level of TC36089_at” value (2 h) was 145. For the same compound, the “expression level of TC36583_at” value (2 h) was 26, the “expression level of TC37631_at” value (2 h) was 38 and the “expression level of TC38094_at” value (2 h) was 13. The “expression level of TC38978_at” value (2 h) was 9, the “expression level of TC39012_at” value (2 h) was 47 and the “expression level of TC39080_at” value (2 h) was 7. For the same compound, the “expression level of TC39762_at” value (2 h) was 17, the “expression level of TC40487_g_at” value (2 h) was 14 and the “expression level of TC41014_at” value (2 h) was 9. For the same compound, the “expression level of U44731_s_at” value (2 h) was 80, the “expression level of X67914_s_at” value (2 h) was 59 and the “expression level of Z31202_s_at” value (2 h) was 17. For the same compound, the “expression level of aa144045_s_at” value (2 h) was 46, the “expression level of aa174748_at” value (2 h) was 55 and the “expression level of c81206_rc_at” value (2 h) was 23. For the same compound, the “expression level of k00083_s_at” value (2 h) was 54, the “expression level of x12531_s_at” value (2 h) was 81 and the “expression level of D86609_s_at” value (6 h) was 21. The “expression level of ET63436_at” value (6 h) was 82, the “expression level of MIP1-B_at” value (6 h) was 102 and the “expression level of Msa.11439.0_s_at” value (6 h) was 31. The “expression level of Msa.15983.0_f_at” value (6 h) was 33, the “expression level of Msa.1669.0_f_at” value (6 h) was 38 and the “expression level of Msa.18713.0_g_at” value (6 h) was 35. The “expression level of Msa.21745.0_s_at” value (6 h) was 6, the “expression level of TC3225_at” value (6 h) was 44 and the “expression level of TC14671_g_at” value (6 h) was 19. The “expression level of TC16364_at” value (6 h) was 42, the “expression level of TC16828_at” value (6 h) was 48 and the “expression level of TC17132_at” value (6 h) was 54. For the same compound, the “expression level of TC17495_at” value (6 h) was 9, the “expression level of TC17558_at” value (6 h) was 26 and the “expression level of TC18221_at” value (6 h) was 8. The “expression level of TC19211_at” value (6 h) was 17, the “expression level of TC21156_at” value (6 h) was 33 and the “expression level of TC23346_s_at” value (6 h) was 11. The “expression level of TC23450_s_at” value (6 h) was 12, the “expression level of TC24045_at” value (6 h) was 21 and the “expression level of TC24067_at” value (6 h) was 23. For the same compound, the “expression level of TC25965_at” value (6 h) was 18, the “expression level of TC27326_g_at” value (6 h) was 33 and the “expression level of TC29889_at” value (6 h) was 15.
